Reference: ChEMBL document CHEMBL1201862, “PubChem BioAssay data set” (2004)
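The compound was tested at five concentrations on cells cultured in 96-well plates, with a 48-hour exposure period. At the GI50, growth is halved.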 The source made the active and inactive calls. Rule as the data show it: active = GI50 up to about 1.1 µM and inactive = higher.

Key:
Assay in all cases: growth of human tumour cells (NCI), 48 h
786-0 = system: 786-0
ACHN = system: ACHN
HL-60 = system: HL-60
HOP-62 = system: HOP-62
LOX IMVI = system: LOX IMVI
MOLT-4 = system: MOLT-4
NCI-H226 = system: NCI-H226
NCI-H23 = system: NCI-H23
OVCAR-4 = system: OVCAR-4
OVCAR-8 = system: OVCAR-8
SK-MEL-2 = system: SK-MEL-2
SK-MEL-5 = system: SK-MEL-5
SK-OV-3 = system: SK-OV-3
UACC-257 = system: UACC-257
UACC-62 = system: UACC-62
RXF 393 = system: RXF 393

SMILES	GI50 (786-0)	GI50 (ACHN)	GI50 (HL-60)	GI50 (HOP-62)	GI50 (LOX IMVI)	GI50 (MOLT-4)	GI50 (NCI-H226)	GI50 (NCI-H23)	GI50 (OVCAR-4)	GI50 (OVCAR-8)	GI50 (SK-MEL-2)	GI50 (SK-MEL-5)	GI50 (SK-OV-3)	GI50 (UACC-257)	GI50 (UACC-62)	GI50 (RXF 393)
CCOC(=O)/C(=C/c1ccc(C(=O)OC)cc1)N(CC)CC	41 µM (inactive)	60.5 µM (inactive)	27.4 µM (inactive)	51.6 µM (inactive)	63.2 µM (inactive)	29.1 µM (inactive)	35.1 µM (inactive)	36.6 µM (inactive)	48.2 µM (inactive)	63 µM (inactive)	44.9 µM (inactive)	37.7 µM (inactive)	50.5 µM (inactive)	57.3 µM (inactive)	53.5 µM (inactive)	
Cc1cc2c(C=O)n[nH]c2c(C#N)c1C	> 100 µM (inactive)	63.5 µM (inactive)		> 100 µM (inactive)	39.4 µM (inactive)	> 100 µM (inactive)		29.6 µM (inactive)	29.2 µM (inactive)	43 µM (inactive)	> 100 µM (inactive)	32.6 µM (inactive)	> 100 µM (inactive)	43.5 µM (inactive)	43.3 µM (inactive)	
O=C1c2ccccc2C(=O)N1C/C=N/NS(=O)(=O)c1ccc(Cl)cc1	> 100 µM (inactive)	> 100 µM (inactive)	> 100 µM (inactive)	> 100 µM (inactive)	> 100 µM (inactive)	> 100 µM (inactive)	31.7 µM (inactive)	> 100 µM (inactive)	> 100 µM (inactive)	> 100 µM (inactive)	> 100 µM (inactive)	> 100 µM (inactive)		> 100 µM (inactive)	> 100 µM (inactive)	
CCOC(=O)COc1cccc2c1C(=O)CCO2	> 100 µM (inactive)	> 100 µM (inactive)	> 100 µM (inactive)	> 100 µM (inactive)	> 100 µM (inactive)	> 100 µM (inactive)		> 100 µM (inactive)	> 100 µM (inactive)	> 100 µM (inactive)	> 100 µM (inactive)	> 100 µM (inactive)	> 100 µM (inactive)	> 100 µM (inactive)	> 100 µM (inactive)	
CN[C@@H](C)[C@@H](N)c1ccccc1	> 100 µM (inactive)	> 100 µM (inactive)			> 100 µM (inactive)	> 100 µM (inactive)	> 100 µM (inactive)	> 100 µM (inactive)		> 100 µM (inactive)		> 100 µM (inactive)	> 100 µM (inactive)	> 100 µM (inactive)	> 100 µM (inactive)	> 100 µM (inactive)
CC/C(=N/O)c1ccc2[nH]c3c(C)cc([N+](=O)[O-])c(C)c3c2c1	36 µM (inactive)	25.1 µM (inactive)	12.7 µM (inactive)	44 µM (inactive)	54.1 µM (inactive)	29.6 µM (inactive)	> 100 µM (inactive)	82.4 µM (inactive)	87.9 µM (inactive)	53.2 µM (inactive)	> 100 µM (inactive)	57.3 µM (inactive)		95.1 µM (inactive)		
Nc1ncnc2c1ncn2C1OC(CSC(F)(F)F)C(O)C1O (stereo unspecified)	> 100 µM (inactive)	> 100 µM (inactive)	> 100 µM (inactive)	> 100 µM (inactive)	> 100 µM (inactive)	> 100 µM (inactive)	> 100 µM (inactive)	> 100 µM (inactive)	> 100 µM (inactive)	> 100 µM (inactive)	> 100 µM (inactive)	> 100 µM (inactive)	> 100 µM (inactive)	> 100 µM (inactive)	> 100 µM (inactive)	
CCOC(=O)NC1C2CC(=O)OC(O2)C1OC(C)=O (stereo unspecified)	> 100 µM (inactive)	> 100 µM (inactive)		> 100 µM (inactive)	> 100 µM (inactive)	> 100 µM (inactive)	0.424 µM (active)	> 100 µM (inactive)	> 100 µM (inactive)	> 100 µM (inactive)	> 100 µM (inactive)	> 100 µM (inactive)	> 100 µM (inactive)	> 100 µM (inactive)	> 100 µM (inactive)	> 100 µM (inactive)
